{"source": "patent US20080261291A1", "about": "(priority 2004, published 2008)", "tested_on": "hairy scalp of men with premature alopecia", "conditions": "0.5% in excipient, 0.5 to 1 ml on the head scalp, one week", "experimental": "It is wanted to evaluate the genin of Calocarpum, (Chrysophyllum or Lucuma) as obtained of the example 6 according to this invention, as capillary rubefacient agent for which six affected gentlemen of premature alopecia are tried, to witch are requested to subject themselves to one weeks of test, which consists on being applied from 0.5 to 1 ml of the diluted products in test in the affected area of the head scalp in the clean skin. The two men of the group #1, receives the mixture of genin of Calocarpum, in a preparation consisting on the product as obtained of the example 6, to 0.5% in an excipient. The excipient composition for 100 g is: water 20 g, propyleneglycol 25 g, sunflower oil 54.5 g. The two men of the group #2, receives the same composition of the previous excipient and resorcinol to 0.5%. The two men of the group #3, receives the before mentioned excipient alone. The following questionnaire is registered and the pertinent observations of the test are made.\nAge; sex; since when they present the alopecia; duration of the applied treatment; 1.—Was the treatment irritating: a) it was not irritating, b) light, c) moderate, d) high, e) severe. 2.—Irritation type: a) hyperaemia (heat), b) inflammation, c) vesicatión (it produces blisters) 3.—keratolytic (desquamation production): a) without effect, b) light, c) moderate, d) extensive. […]", "data": [{"smiles": "Oc1cccc(O)c1", "note": "[resorcinol]", "values": [{"measurement": "keratolysis (desquamation production)", "result": "moderate keratolysis"}]}]}
